Legend:
human NEP = human NEP (Homo sapiens (Human), UniProt P08473); assay: In vitro enzyme inhibition assay at human NEP; conditions: recombinant human NEP, fluorogenic peptide substrate, 37° C.; for Ki: pKi
[1] = Rat PO cassette assay (oral bioavailability); type: in vivo, Sprague-Dawley rats; conditions: male, Sprague-Dawley, plasma, single oral gavage vs intravenous dose, 0.5 mg/kg
Excerpt: Oral bioavailability, or % F, is a measure of the percentage of a drug in an oral dose that actually reaches the systemic circulation. Compound losses can occur due to incomplete formulation dissolution, incomplete absorption due to compound insolubility or instability along the GI, or metabolism in the gut or across the gut wall. The fraction of the dose which reaches the hepatic portal vein must also then pass through the liver before reaching the systemic circulation. Compound metabolism, or “first-pass extraction,” can occur during this initial passage through the liver, and this is an additional potential source of compound loss. Oral bioavailability is calculated as the dose-normalized ratio of drug exposure after an oral dose to that after an intravenous dose, wherein the entire dose is delivered directly to the systemic circulation.
Each cassette study begins with 10 mM DMSO stock solutions of up to 5 different compounds. Typically, compounds are selected such no two compounds dosed in the same cassette have a molecular weight within 5 Da of each other. This simplifies subsequent bioanalysis. Appropriate volumes of each DMSO stock are added into a volume of vehicle (5% sodium bicarbonate, 5% dextrose in H2O) such that the final concentration of each compound is 0.25 mg/mL. Intravenous dosing solutions are sterile-filtered (0.2 μm) prior to dosing.
Pre-cannulated male Sprague-Dawley rats (3 per cassette per route) between 8 and 10 weeks of age were obtained from Harlan Laboratories (Indianapolis, Ind.). Rats received either a single oral gavage or a single intravenous (via lateral tail vein) dose (2 mL/kg) of the dosing solution. The final dose was 0.5 mg/kg. Serial blood samples were harvested via jugular vein cannula at 3 minutes, 15 minutes, 30 minutes, 1 hours, 2 hours, 4 hours, 6 hours, and 24 hours post-dose. Sampling was performed either manually or using automated blood samplers. Samples were collected into microtainer tubes containing EDTA as the anticoagulant and are processed to plasma by refrigerated centrifugation.
Plasma samples were extracted with 3 volumes of MeCN containing a suitable internal standard. Extracts were reconstituted into 3 volumes of water containing 1% formic acid, and analyzed via HPLC-coupled MS/MS. Plasma concentration-time data were analyzed using the Phoenix software (Pharsight Corp., St. Louis, Mo.) to calculate pharmacokinetic parameters.
Compounds of the invention of particular interest were those having a % F>10%, when tested in this assay.

Sequence of human NEP (P08473 52-750): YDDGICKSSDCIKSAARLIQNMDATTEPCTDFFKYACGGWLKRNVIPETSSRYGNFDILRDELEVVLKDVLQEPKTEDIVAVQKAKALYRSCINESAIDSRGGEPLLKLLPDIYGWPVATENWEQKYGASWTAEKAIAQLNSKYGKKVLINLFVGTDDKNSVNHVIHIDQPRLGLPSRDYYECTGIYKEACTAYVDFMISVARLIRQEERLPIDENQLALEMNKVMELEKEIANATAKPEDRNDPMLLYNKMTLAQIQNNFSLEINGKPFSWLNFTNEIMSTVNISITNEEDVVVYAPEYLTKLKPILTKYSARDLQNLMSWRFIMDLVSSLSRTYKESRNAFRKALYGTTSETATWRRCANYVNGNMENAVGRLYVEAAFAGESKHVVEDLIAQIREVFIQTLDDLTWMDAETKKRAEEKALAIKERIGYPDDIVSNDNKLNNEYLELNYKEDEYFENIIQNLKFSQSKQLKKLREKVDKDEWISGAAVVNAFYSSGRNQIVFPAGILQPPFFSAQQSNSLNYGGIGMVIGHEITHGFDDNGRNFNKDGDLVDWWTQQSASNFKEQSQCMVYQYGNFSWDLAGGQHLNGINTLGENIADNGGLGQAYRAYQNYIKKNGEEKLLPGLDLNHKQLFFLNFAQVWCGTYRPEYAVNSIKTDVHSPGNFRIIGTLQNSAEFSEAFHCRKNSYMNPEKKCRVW

For `COC(=O)N[C@H](C[C@@H](Cc1ccc(-c2cc(Cl)ccc2F)cc1)NC(=O)c1ncc(C)o1)C(=O)O` [Example 30-4, (2R,4R)-5-(5′-Chloro-2′-fluorobiphenyl-4-yl)-2-methoxycarbonylamino-4-[(5-methyloxazole-2-carbonyl)amino]pentanoic acid], the pKi (human NEP) was “≧9.0” and the bioavailability [1] was over 10%.
For `CCOC(=O)[C@H](N)C[C@@H](Cc1ccc(-c2cc(Cl)ccc2F)cc1)NC(=O)c1cnn[nH]1` [Example 14a, (2R,4R)-2-Amino-5-(5′-chloro-2′-fluorobiphenyl-4-yl)-4-[(3H-[1,2,3]triazole-4-carbonyl)amino]pentanoic Acid Ethyl Ester], the Ki (human NEP) was 10 to 31.6 nM and the bioavailability [1] was over 10%.
For `COC[C@H](C[C@@H](Cc1ccc(-c2cc(Cl)ccc2F)cc1)NC(=O)c1c[nH]nn1)C(=O)O` [Example 2-1, (2S,4S)-5-(5′-chloro-2′-fluorobiphenyl-4-yl)-2-methoxymethyl-4-[(1H-[1,2,3]triazole-4-carbonyl)amino]pentanoic acid], the pKi (human NEP) was “≧9.0” and the bioavailability [1] was over 10%.
With `CCc1cc(C(=O)N[C@H](Cc2ccc(-c3cc(Cl)ccc3F)cc2)C[C@@H](CN)C(=O)O)on1` [Example 21-1, (2S,4S)-2-Aminomethyl-5-(5′-chloro-2′-fluorobiphenyl-4-yl)-4-[(3-ethylisoxazole-5-carbonyl)amino]pentanoic acid] the pKi (human NEP) was “≧9.0” and the bioavailability [1] was over 10%.
For `CCc1cc(C(=O)N[C@H](Cc2ccc(-c3cc(Cl)ccc3F)cc2)C[C@@H](NC(=O)OC)C(=O)O)on1` [Example 29, (2R,4R)-5-(5′-Chloro-2′-fluorobiphenyl-4-yl)-4-[(3-ethylisoxazole-5-carbonyl)amino]-2-methoxycarbonylaminopentanoic Acid], the Ki (human NEP) was at most 1 nM and the bioavailability [1] was over 10%.
In the case of `COC[C@H](C[C@@H](Cc1ccc(-c2cccc(Cl)c2)cc1)NC(=O)c1cnn[nH]1)C(=O)O` [Example 3, (2S,4S)-5-(3′-Chlorobiphenyl-4-yl)-2-methoxymethyl-4-[(3H-[1,2,3]triazole-4-carbonyl)amino]pentanoic Acid], the pKi (human NEP) is reported as “≧9.0” and the bioavailability [1] is reported as over 10%.
In the case of `N[C@H](C[C@@H](Cc1ccc(-c2cc(Cl)ccc2F)cc1)NC(=O)c1cc(-c2ccccc2Cl)no1)C(=O)O` [Example 16-24, (2R,4R)-2-Amino-5-(5′-chloro-2′-fluorobiphenyl-4-yl)-4-{[3-(2-chlorophenyl)-isoxazole-5-carbonyl]amino}pentanoic acid], the pKi (human NEP) is reported as “≧9.0” and the bioavailability [1] is reported as over 10%.
With `COC[C@H](C[C@@H](Cc1ccc(-c2cc(Cl)ccc2F)cc1)NC(=O)c1ncccn1)C(=O)O` [Example 2-13, (2S,4S)-5-(5′-Chloro-2′-fluorobiphenyl-4-yl)-2-methoxymethyl-4-[(pyrimidine-2-carbonyl)amino]pentanoic acid] the pKi (human NEP) was “≧9.0” and the bioavailability [1] was over 10%.
For `CCOC(=O)[C@@H](C[C@@H](Cc1ccc(-c2cc(Cl)ccc2F)cc1)NC(=O)c1cnn[nH]1)CN1CCOCC1` [Example 69b, (2S,4S)-5-(5′-Chloro-2′-fluorobiphenyl-4-yl)-2-morpholin-4-ylmethyl-4-[(3H-[1,2,3]triazole-4-carbonyl)amino]pentanoic Acid Ethyl Ester], the bioavailability [1] was over 10%.
With `COC[C@H](C[C@@H](Cc1ccc(-c2cc(Cl)ccc2F)cc1)NC(=O)c1cocn1)C(=O)O` [Example 2-8, (2S,4S)-5-(5′-Chloro-2′-fluorobiphenyl-4-yl)-2-methoxymethyl-4-[(oxazole-4-carbonyl)amino]pentanoic acid] the pKi (human NEP) was “≧9.0” and the bioavailability [1] was over 10%.
`CCOC(=O)[C@H](N)C[C@@H](Cc1ccc(-c2cc(Cl)ccc2F)cc1)NC(=O)c1cc(C(C)=O)n[nH]1` [Example 16-10, (2R,4R)-4-[(5-Acetyl-2H-pyrazole-3-carbonyl)amino]-2-amino-5-(5′-chloro-2′-fluoro-biphenyl-4-yl)pentanoic acid ethyl ester] showed a Ki (human NEP) of 10 to 31.6 nM and a bioavailability [1] of over 10%.
For `Cc1cc(C(=O)NC(Cc2ccc(-c3cc(Cl)ccc3F)cc2)C[C@@H](CC#N)C(=O)O)sn1` (single isomer, unassigned) [Example 52-1], the Ki (human NEP) was at most 1 nM and the bioavailability [1] was over 10%.
Compound `CCOC(=O)[C@@H](C[C@@H](Cc1ccc(-c2cc(Cl)ccc2F)cc1)NC(=O)c1cnn[nH]1)CN1CC(F)C1` [Example 91a, (2S,4S)-5-(5′-Chloro-2′-fluorobiphenyl-4-yl)-2-(3-fluoroazetidin-1-ylmethyl)-4-[(3H-[1,2,3]triazole-4-carbonyl)amino]pentanoic Acid Ethyl Ester] has a bioavailability [1] of over 10%.
In the case of `CCOC(=O)[C@@H](C[C@@H](Cc1ccc(-c2cc(Cl)ccc2F)cc1)NC(=O)c1cnn[nH]1)CN1CCC1` [Example 84a, (2S,4S)-2-Azetidin-1-ylmethyl-5-(5′-chloro-2′-fluorobiphenyl-4-yl)-4-[(3H-[1,2,3]triazole-4-carbonyl)amino]pentanoic Acid Ethyl Ester], the bioavailability [1] is reported as over 10%.
For `CCOC[C@H](C[C@@H](Cc1ccc(-c2cc(Cl)ccc2F)cc1)NC(=O)c1c[nH]nn1)C(=O)O` [Example 7-1, (2S,4S)-5-(5′-Chloro-2′-fluorobiphenyl-4-yl)-2-ethoxymethyl-4-[(1H-[1,2,3]triazole-4-carbonyl)amino]pentanoic acid], the pKi (human NEP) was “≧9.0” and the bioavailability [1] was over 10%.
With `COC[C@H](C[C@@H](Cc1ccc(-c2cc(Cl)ccc2F)cc1)NC(=O)c1ncc(C)o1)C(=O)O` [Example 2-15, (2S,4S)-5-(5′-Chloro-2′-fluorobiphenyl-4-yl)-2-methoxymethyl-4-[(5-methyloxazole-2-carbonyl)amino]pentanoic acid] the pKi (human NEP) was “≧9.0” and the bioavailability [1] was over 10%.
Work on `CCOC(=O)[C@H](N)C[C@@H](Cc1ccc(-c2cc(Cl)ccc2F)cc1)NC(=O)c1coc(=O)[nH]1` [Example 16-32, (2R,4R)-2-Amino-5-(5′-chloro-2′-fluorobiphenyl-4-yl)-4-[(2-oxo-2,3-dihydro-oxazole-4-carbonyl)amino]pentanoic acid ethyl ester] yielded a bioavailability [1] of over 10%.
`O=C(N[C@H](Cc1ccc(-c2cc(Cl)ccc2F)cc1)C[C@@H](CNCC(F)F)C(=O)O)c1cnn[nH]1` [Example 82a, (2S,4S)-5-(5′-Chloro-2′-fluorobiphenyl-4-yl)-2-[(2,2-difluoroethylamino)methyl]-4-[(3H-[1,2,3]triazole-4-carbonyl)amino]pentanoic Acid] gave a Ki (human NEP) of at most 1 nM.
In the case of `COC(=O)N[C@H](C[C@@H](Cc1ccc(-c2cc(Cl)ccc2F)cc1)NC(=O)c1c[nH]c(=O)o1)C(=O)O` [Example 30-10, (2R,4R)-5-(5′-Chloro-2′-fluorobiphenyl-4-yl)-2-methoxycarbonylamino-4-[(2-oxo-2,3-dihydro-oxazole-5-carbonyl)amino]pentanoic acid], the pKi (human NEP) is reported as “≧9.0”.
In the case of `COC[C@H](C[C@@H](Cc1ccc(-c2cc(Cl)ccc2F)cc1)NC(=O)c1cc(C(C)=O)n[nH]1)C(=O)O` [Example 2-4, (2S,4S)-4-[(5-Acetyl-2H-pyrazole-3-carbonyl)-amino]-5-(5′-chloro-2′-fluorobiphenyl-4-yl)-2-methoxymethylpentanoic acid], the pKi (human NEP) is reported as “≧9.0”.
In the case of `CCOC[C@H](C[C@@H](Cc1ccc(-c2cc(Cl)ccc2F)cc1)NC(=O)c1coc(C2CC2)n1)C(=O)O` [Example 7-8, (2S,4S)-5-(5′-Chloro-2′-fluorobiphenyl-4-yl)-4-[(2-cyclopropyloxazole-4-carbonyl)amino]-2-ethoxymethylpentanoic acid], the Ki (human NEP) is reported as 1.26 to 3.16 nM.
With `O=C(N[C@H](Cc1ccc(-c2cc(Cl)ccc2F)cc1)C[C@@H](Cn1nccn1)C(=O)O)c1cnn[nH]1` [Example 61b, (2S,4S)-5-(5′-Chloro-2′-fluorobiphenyl-4-yl)-4-[(3H-[1,2,3]triazole-4-carbonyl)amino]-2-[1,2,3]triazol-2-ylmethylpentanoic Acid] the Ki (human NEP) was at most 1 nM.
`CCOc1nc(C(=O)N[C@H](Cc2ccc(-c3cc(Cl)ccc3F)cc2)C[C@@H](N)C(=O)O)co1` [Example 16-5, (2R,4R)-2-Amino-5-(5′-chloro-2′-fluorobiphenyl-4-yl)-4-[(2-ethoxyoxazole-4-carbonyl)-amino]pentanoic acid] gave a Ki (human NEP) of 3.16 to 10 nM.
In the case of `NCCC(=O)N[C@H](C[C@@H](Cc1ccc(-c2cc(Cl)ccc2F)cc1)NC(=O)c1cnn[nH]1)C(=O)O` [Example 41, (2R,4R)-2-(3-Aminopropionylamino)-5-(5′-chloro-2′-fluoro-biphenyl-4-yl)-4-[(3H-[1,2,3]triazole-4-carbonyl)amino]pentanoic Acid], the pKi (human NEP) is reported as “≧9.0”.
`O=C(N[C@H](Cc1ccc(-c2cc(Cl)ccc2F)cc1)CC(C(=O)O)c1cccs1)c1cnn[nH]1` (stereo in doubt) [Example 78, (S)-5-(5′-Chloro-2′-fluorobiphenyl-4-yl)-2-thiophen-2-yl-4-[(3H-[1,2,3]triazole-4-carbonyl)amino]pentanoic Acid] showed a Ki (human NEP) of 1.26 to 3.16 nM.
